Test results reported in patent US20200055839A1 (priority 2017, published 2020).

System: NL-RLuc virus
Assay: Inhibition of HIV replication (NL-RLuc virus, luciferase readout in MT-2 cells)
Format: cell-based
Conditions: Human immunodeficiency virus 1, MT2, 120 h, MT-2 cells infected with NL-RLuc virus, 5 days of incubation, 10% FBS, at least 2 experiments
Source text: Inhibition of HIV Replication:
A recombinant NL-RLuc proviral clone was constructed in which a section of the nef gene form NL4-3 was replaced with the Renilla Luciferase gene. This virus is fully infectious and can undergo multiple cycles of replication in cell culture. In addition, the luciferous reporter provides a simple and easy method for quantitating the extent of virus growth and consequently, the antiviral activity of test compounds. The plasmid pNLRLuc contains the proviral NL-Rluc DNA cloned into pUC18 at the PvuII site. The NL-RLuc virus was prepared by transfection of 293T cells with the plasmid pNLRLuc. Transfections were performed using the LipofectAMINE PLUS kit form Invitrogen (Carlsbad, Calif.) according to the manufacturer and the virus generated was titered in MT-2 cells. For susceptibility analyses, the titrated virus was used to infect MT-2 cells in the presence of compound, and after 5 days of incubation, cells were processed and quantitated for virus growth by the amount of expressed luciferase. Assay media was RPMI 1640 supplemented with 10% heat inactivated fetal bovine serum (FBS), 100 units/ml penicillin G/100 units/ml streptomycin, 10 mM HEPES buffer pH 7.55 and 2 mM L-glutamine. The results form at least 2 experiments were used to calculate the EC50 values. Luciferase was quantitated using the Dual Luciferase kit form Promega (Madison, Wis.). Susceptibility of viruses to compounds was determined by incubation in the presence of serial dilutions of the compound. The 50% effective concentration (EC50) was calculated by using the exponential form of the median effect equation where (Fa)=1/[1+(ED50/drug conc.)^m](Johnson V A, Byington R T. Infectivity Assay. In Techniques in HIV Research. ed. Aldovini A, Walker B D. 71-76. New York: Stockton Press. 1990).

SMILES | EC50 [nM]
COc1c(Cl)cccc1-c1cnc(C)c([C@H](OC(C)(C)C)C(=O)O)c1N1CCC(C)(C)CC1 [Example 152, (2S)-2-(tert-Butoxy)-2-[5-(3-chloro-2-methoxyphenyl)-4-(4,4-dimethylpiperidin-1-yl)-2-methylpyridin-3-yl]acetic acid] | 60
Cc1nc(Nc2ccc(C(=O)O)cn2)c(-c2ccc(OCCc3ccc(F)cc3)cc2)c(N2CCC(C)(C)CC2)c1[C@H](OC(C)(C)C)C(=O)O [Example 101, (S)-6-((5-(tert-Butoxy(carboxy)methyl)-4-(4,4-dimethylpiperidin-1-yl)-3-(4-(4-fluorophenethoxy)phenyl)-6-methylpyridin-2-yl)amino)nicotinic acid] | 10
Cc1ncc(-c2cnc(OCCCC(C)C)c(F)c2)c(N2CCC(C)(C)CC2)c1[C@H](OC(C)(C)C)C(=O)O [Example 394, (2S)-2-(tert-butoxy)-2-[4-(4,4-dimethylpiperidin-1-yl)-5′-fluoro-6-methyl-6′-[(4-methylpentyl)oxy]-[3,3′-bipyridine]-5-yl]acetic acid] | 3
CC1(C)CCN(c2c(-c3ccc(OCCc4ccc(F)cc4)c(F)c3)cnc(Cl)c2[C@H](OC(C)(C)C)C(=O)O)CC1 [Example 214, (S)-2-(tert-Butoxy)-2-(2-chloro-4-(4,4-dimethylpiperidin-1-yl)-5-(3-fluoro-4-(4-fluorophenethoxy)phenyl)pyridin-3-yl)acetic acid] | 9
Cc1ncc(-c2cccc(C(=O)O)c2)c(N2CCC(C)(C)CC2)c1[C@H](OC(C)(C)C)C(=O)O [Example 147, 3-{5-[(S)-(tert-butoxy) (carboxy)methyl]-4-(4,4-dimethylpiperidin-1-yl)-6-methylpyridin-3-yl}benzoic acid] | 328
Cc1ncc(-c2ccc(OCCc3c(F)cc(F)cc3F)cn2)c(N2CCC(C)(C)CC2)c1[C@H](OC(C)(C)C)C(=O)O [Example 298, (2S)-2-(tert-butoxy)-2-[4′-(4,4-dimethylpiperidin-1-yl)-6′-methyl-5-[2-(2,4,6-trifluorophenyl)ethoxy]-[2,3′-bipyridine]-5′-yl]acetic acid] | 1
CC1(C)CCN(c2c(-c3ccc(OCCc4ccc(F)cc4)cc3)cnc(C#N)c2[C@H](OC(C)(C)C)C(=O)O)CC1 [Example 222, (S)-2-(tert-Butoxy)-2-(2-cyano-4-(4,4-dimethylpiperidin-1-yl)-5-(4-(4-fluorophenethoxy)phenyl)pyridin-3-yl)acetic acid] | 8
COc1nc(C)c(-c2ccc(OCCc3ccc(F)cc3)cc2)c(N2CCC(C)(C)CC2)c1[C@H](OC(C)(C)C)C(=O)O [Example 3, (S)-2-(tert-Butoxy)-2-(4-(4,4-dimethylpiperidin-1-yl)-5-(4-(4-fluorophenethoxy)phenyl)-2-methoxy-6-methylpyridin-3-yl)acetic acid] | 8
Cc1ncc(-c2cnc(OCCc3c(Cl)cccc3Cl)c(F)c2)c(N2CCC(C)(C)CC2)c1[C@H](OC(C)(C)C)C(=O)O [Example 373, (2S)-2-(tert-butoxy)-2-{6′-[2-(2,6-dichlorophenyl)ethoxy]-4-(4,4-dimethylpiperidin-1-yl)-5′-fluoro-6-methyl-[3,3′-bipyridine]-5-yl}acetic acid] | 3
Cc1cccc(Cl)c1CCOc1ccc(-c2cnc(C)c([C@H](OC(C)(C)C)C(=O)O)c2N2CCC(C)(C)CC2)cn1 [Example 412, (S)-2-(tert-Butoxy)-2-(6′-(2-chloro-6-methylphenethoxy)-4-(4,4-dimethylpiperidin-1-yl)-6-methyl-[3, 3′-bipyridin]-5-yl)acetic acid] | 4
Cc1nc(C(=O)N2CCS(=O)(=O)CC2)c(-c2ccc(OCCc3ccc(F)cc3)cc2)c(N2CCC(C)(C)CC2)c1[C@H](OC(C)(C)C)C(=O)O [Example 10, (S)-2-(tert-Butoxy)-2-(4-(4,4-dimethylpiperidin-1-yl)-6-(1,1-dioxidothiomorpholine-4-carbonyl)-5-(4-(4-fluorophenethoxy)phenyl)-2-methylpyridin-3-yl)acetic acid] | 31
Cc1ccc(F)cc1CCOc1ccc(-c2cnc(C)c([C@H](OC(C)(C)C)C(=O)O)c2N2CCC(C)(C)CC2)nc1 [Example 295, (2S)-2-(tert-butoxy)-2-[4′-(4,4-dimethylpiperidin-1-yl)-5-[2-(5-fluoro-2-methylphenyl)ethoxy]-6′-methyl-[2,3′-bipyridine]-5′-yl]acetic acid] | 2
Cc1ncc(-c2ccc(OCCc3ccc(F)cc3)c(F)c2)c(N2CCC(C)(C)CC2)c1[C@H](OC(C)(C)C)C(=O)O [Example 122, (S)-2-(tert-Butoxy)-2-(4-(4,4-dimethylpiperidin-1-yl)-5-(3-fluoro-4-(4-fluorophenethoxy)phenyl)-2-methylpyridin-3-yl)acetic acid] | 1
Cc1nc(NC2CC2)c(-c2ccc(OCCc3ccc(F)cc3)cc2)c(N2CCC(C)(C)CC2)c1[C@H](OC(C)(C)C)C(=O)O [Example 106, (S)-2-(tert-Butoxy)-2-(6-(cyclopropylamino)-4-(4,4-dimethylpiperidin-1-yl)-5-(4-(4-fluorophenethoxy)phenyl)-2-methylpyridin-3-yl)acetic acid] | 1
Cc1nc(N)c(-c2cnc(OCCc3ccc(F)cc3)c(F)c2)c(N2CCC(C)(C)CC2)c1[C@H](OC(C)(C)C)C(=O)O [Example 115, (S)-2-(2-Amino-4-(4,4-dimethylpiperidin-1-yl)-5′-fluoro-6′-(4-fluorophenethoxy)-6-methyl-[3, 3′-bipyridin]-5-yl)-2-(tert-butoxy)acetic acid] | 1
COc1cccc(-c2cnc(C)c([C@H](OC(C)(C)C)C(=O)O)c2N2CCC(C)(C)CC2)c1OC [Example 158, (2S)-2-(tert-Butoxy)-2-[5-(2,3-dimethoxyphenyl)-4-(4,4-dimethylpiperidin-1-yl)-2-methylpyridin-3-yl]acetic acid] | 16
Cc1nc(NCc2ccn[nH]2)c(-c2ccc(OCCc3ccc(F)cc3)cc2)c(N2CCC(C)(C)CC2)c1[C@H](OC(C)(C)C)C(=O)O [Example 30, (S)-2-(6-(((1H-Pyrazol-5-yl)methyl)amino)-4-(4,4-dimethylpiperidin-1-yl)-5-(4-(4-fluorophenethoxy)phenyl)-2-methylpyridin-3-yl)-2-(tert-butoxy)acetic acid] | 2
Cc1ncc(-c2ccc(OCc3ccccc3)cn2)c(N2CCC(C)(C)CC2)c1[C@H](OC(C)(C)C)C(=O)O [Example 288, (S)-2-(5-(Benzyloxy)-4′-(4,4-dimethylpiperidin-1-yl)-6′-methyl-[2, 3′-bipyridin]-5′-yl)-2-(tert-butoxy)acetic acid] | 1
Cc1ncc(-c2ccc(OCc3ncnc4c3oc3ccccc34)cc2)c(N2CCC(C)(C)CC2)c1[C@H](OC(C)(C)C)C(=O)O [Example 19, (2S)-2-(tert-Butoxy)-2-[4-(4,4-dimethylpiperidin-1-yl)-2-methyl-5-[4-({8-oxa-3,5-diazatricyclo[7.4.0.0^2,7]trideca-1(9), 2(7), 3,5,10,12-hexaen-6-yl}methoxy)phenyl]pyridin-3-yl]acetic acid] | 4
Cc1cc(-c2cnc(C)c([C@H](OC(C)(C)C)C(=O)O)c2N2CCC(C)(C)CC2)cnc1OCCc1ccc(F)cc1 [Example 253, (S)-2-(tert-Butoxy)-2-(4-(4,4-dimethylpiperidin-1-yl)-6′-(4-fluorophenethoxy)-5′,6-dimethyl-[3,3′-bipyridin]-5-yl)acetic acid] | 1
CCOc1ccc(CCOc2ccc(-c3cnc(C)c([C@H](OC(C)(C)C)C(=O)O)c3N3CCC(C)(C)CC3)nc2)cc1 [Example 320, (2S)-2-(tert-butoxy)-2-[4′-(4,4-dimethylpiperidin-1-yl)-5-[2-(4-ethoxyphenyl)ethoxy]-6′-methyl-[2,3′-bipyridine]-5′-yl]acetic acid] | 2
COc1nc(-c2cnc(C)c([C@H](OC(C)(C)C)C(=O)O)c2N2CCC(C)(C)CC2)ccc1OCCc1ccc(F)cc1 [Example 249, (S)-2-(tert-Butoxy)-2-(4′-(4,4-dimethylpiperidin-1-yl)-5-(4-fluorophenethoxy)-6-methoxy-6′-methyl-[2, 3′-bipyridin]-5′-yl)acetic acid] | 2
Cc1nc(-n2cccn2)c(-c2ccc(OCCc3ccc(F)cc3)cc2)c(N2CCC(C)(C)CC2)c1[C@H](OC(C)(C)C)C(=O)O [Example 62, (S)-2-(tert-Butoxy)-2-(4-(4,4-dimethylpiperidin-1-yl)-5-(4-(4-fluorophenethoxy)phenyl)-2-methyl-6-(1H-pyrazol-1-yl)pyridin-3-yl)acetic acid] | 3
Cc1ncc(-c2ccc(O)cn2)c(N2CCC(C)(C)CC2)c1[C@H](OC(C)(C)C)C(=O)O [Example 287, (S)-2-(tert-Butoxy)-2-(4′-(4,4-dimethylpiperidin-1-yl)-5-hydroxy-6′-methyl-[2, 3′-bipyridin]-5′-yl)acetic acid] | 379
CCc1ncc(-c2ccc(OCCc3ccc(F)cc3)cn2)c(N2CCC(C)(C)CC2)c1[C@H](OC(C)(C)C)C(=O)O [Example 270] | 0.6
